From patent EP0132130A2, “Aroyl benzofuran and benzothiophene acetic and propionic acids processes for their production and pharmaceutical compositions containing them” (SYNTEX (U.S.A.) INC., priority 1983, dated 1985)

Columns and labels:
[1] = system: carrageenin induced paw inflammation; test: Screening test for anti-inflammatory activity: carrageenin induced paw inflammation in the rat (method of Winter et al.); format: in vivo; conditions: activity relative to phenylbutazone = 1; oral by gavage at hour 0, female rats, carrageenin at hour 1, paws weighed at hour 4
Description: Initial small animal screening tests to determine anti-inflammatory activity potential include the carrageenin induced paw inflammation in the rat according to the method of Winter, et al., Proc. Soc. Exp. Biol. Med., 111:544-547, (1962) and the cotton pellet granuloma test in the rat according to the method of Meier, et al Experientia 6:469-471, (1950) and modifications thereof. The oral anti-inflammatory activity is determined utilizing carrageenin induced paw inflammation in the rat in accordance with the method of Winter, et al., Pro.Soc.Exp.Biol.Med., III:544-547, (1962). Female rats weighing 80-90 grams are used. The test materials are given at hour 0 orally by gavage in 1 ml of aqueous vehicle. At hour 1, 0.05 ml of a 1% solution (in 0.9% NaCl) of carrageenin is injected into the right hind paw. This injection causes inflammation of the paw. The rats are sacrificed at hour 4, at which time both hind paws are removed and weighed separately. The percent increase in paw size is calculated as follows: • Wt. of right paw - Wt of left ^paw X 100 […] The smaller the percent increase in paw size, the lesser the degree of inflammation and the greater the anti-inflammatory activity. Compounds of this invention show anti-inflammatory activity in this test as illustrated in Table 1 below.

[2] = system: phenylquinone induced writhing; test: Screening test for analgetic activity: mouse analgetic (anti-writhing) assay (method of Hendershot & Forsaith); format: in vivo; conditions: activity relative to aspirin = 1; oral by gavage, male Swiss-Webster mice, phenylquinone IP twenty minutes later
Description: Small animal screening tests to determine analgetic activity potential include the mouse analgetic (anti-writhing) assay according to the method of Hendershot and Forsaith, J. Pharmacol. Exp. Ther., 125:237-240, (1959).
The oral analgetic activity potential is determined utilizing the mouse analgetic (anti-writhing) assay in accordance with the method of Hendershot & Forsaith, J.Pharmacol.Exp.Ther., 125:237-240, (1959).
The test material is administered orally by gavage in an aqueous vehicle at time 0 to 18-20 gram male Swiss-Webster mice. Twenty minutes later 0.5 ml of a 0.02% solution of phenylquinone is injected IP. This solution induces writhing.
The total number of mice that writhe and the average number of writhes per mouse indicates the activity of the compound tested; the fewer writhes per mouse indicates a greater activity. Compounds of this invention show analgetic activity in this assay as illustrated in Table 2 below.

SMILES | (Phenylbutazone = 1) Antiinflammatory Activity [1] | Analgesic Activity (Aspirin = 1) [2]
CSc1ccc(C(=O)c2cc(C(C)C(=O)O)cc3ccoc23)cc1 (racemic) [d,l 2-(7-(4-methylthiobenzoyl)benzofuran-5-yl)-propionic acid] | 15 | 25
CC(C(=O)O)c1cc(C(=O)c2ccccc2)c2occc2c1 (racemic) [d,l 2-(7-benzoylbenzofuran-5-yl)propionic acid] | 2 | 50
CC(C(=O)O)c1cc(C(=O)c2ccc(Cl)cc2)c2occc2c1 (racemic) [d.1-2-(7-(4-chlorobenzoyl)benzofuran-5-yl)-propionic acid] | 4 | 35
O=C(O)Cc1cc(C(=O)c2ccc(Cl)cc2)c2occc2c1 [7-(4-chlorobenzoyl)benzofuran-5-ylacetic acid] | 0.5 | 32
O=C(O)Cc1cc(C(=O)c2ccc(Cl)cc2)c2sccc2c1 [7-(4-chlorobenzoyl)benzothiophen-5-ylacetic acid] | 1.5 | 7
CSc1ccc(C(=O)c2cc(CC(=O)O)cc3ccoc23)cc1 [7-(4-methylthiobenzoyl)benzofuran-5-ylacetic acid] | 1.5 | 95
O=C(O)Cc1cc(C(=O)c2ccccc2)c2occc2c1 [Ar=phenyl, R1=H, X1=O, X2=O, R2=H, R3=H, 7-benzoylbenzofuran-5-ylacetic acid] | 1 | 25
